Consider 25 molecules from patent US10618903B2, “Heteroaryl substituted aminopyridine compounds” (BRISTOL-MYERS SQUIBB COMPANY, priority 2015, dated 2020).

One test addresses IRAK4 (Homo sapiens (Human), UniProt Q9NWZ3). Nature of the test: IRAK4 Inhibition Assay. It counts as biochemical. The following applies: ATP 500 μM; IRAK4 0.6 nM. Put shortly:
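Readout: electrophoretic (LabChip) separation of fluorescent peptide substrate from phosphorylated product after EDTA quench. Reactions ran 60 min at room temperature with 0.6 nM IRAK4, 1.5 μM peptide and 500 μM ATP; inhibition referenced to no-enzyme (100%) and vehicle (0%) controls.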

The subject of test [1] is IL-6 levels in human whole blood stimulated with a TLR2 agonist. In words: IRAK4 Whole Blood Assay (lipoteichoic acid/TLR2-stimulated IL-6). It counts as cell-based. The following applies: Homo sapiens, lipoteichoic acid 10 μg/mL, IL-6 readout. The procedure: Human whole blood containing the anti-coagulant ACD-A was plated in 384-well plate (25 μL/well) and incubated with compounds for 60 minutes at 37° C. in a 5% CO2 incubator. The blood was stimulated with a TLR2 agonist, 10 μg/mL final concentration of lipoteichoic acid (Invivogen, San Diego, Calif.) in 25 μL RPMI (Gibco) for 5 hours in a 5% CO2 incubator. At the end of the incubation, plates were centrifuged at 2300 rpm for 5 minutes. Supernatants were harvested and analyzed for IL-6 levels by Flow Cytometry beads assay (BD Biosciences, San Jose, Calif.).

Chain of IRAK4 (Q9NWZ3 whole entry): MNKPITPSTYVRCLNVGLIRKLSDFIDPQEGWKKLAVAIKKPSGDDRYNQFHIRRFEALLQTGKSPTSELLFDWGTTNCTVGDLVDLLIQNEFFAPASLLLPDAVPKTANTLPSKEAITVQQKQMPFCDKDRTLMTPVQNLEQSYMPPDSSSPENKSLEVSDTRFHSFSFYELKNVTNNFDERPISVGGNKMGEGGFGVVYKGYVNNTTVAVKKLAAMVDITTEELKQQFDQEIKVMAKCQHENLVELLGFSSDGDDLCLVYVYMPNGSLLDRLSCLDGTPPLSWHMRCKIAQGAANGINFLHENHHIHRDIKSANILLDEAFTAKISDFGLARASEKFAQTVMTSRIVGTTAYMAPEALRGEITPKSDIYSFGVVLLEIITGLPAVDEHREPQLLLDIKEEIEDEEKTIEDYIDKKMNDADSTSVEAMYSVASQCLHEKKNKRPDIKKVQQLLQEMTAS

Turning to `CC(C)Nc1cc(-c2ccn(-c3ccncc3)n2)ncc1C(=O)NC[C@@H](F)C(C)(C)O` [Example 156, (R)—N-(2-fluoro-3-hydroxy-3-methylbutyl)-4-(isopropylamino)-6-(1-(pyridin-4-yl)-1H-pyrazol-3-yl)nicotinamide], the IC50 at IRAK4 was determined as 14 nM. This molecule displayed an EC50 in test [1] of 2340 nM.
In the case of `CC(C)Nc1cc(-c2cnn3cc(Cl)cnc23)ncc1C(=O)NC[C@@H](F)C(C)(C)OC(F)F` [Example 157, (R)-6-(6-chloropyrazolo[1,5-a]pyrimidin-3-yl)-N-(3-(difluoromethoxy)-2-fluoro-3-methylbutyl)-4-(isopropylamino)nicotinamide], the IC50 on IRAK4 was 3 nM. This molecule also had a concentration for a half-maximal effect (EC50) in test [1] of 930 nM.
On the same counts, the results for `CC(F)CCNc1cc(-c2cnn3cc(Cl)cnc23)ncc1C(=O)NC[C@@H](F)C(C)(C)O` (stereo partly drawn) [Example 160, 6-(6-chloropyrazolo[1,5-a]pyrimidin-3-yl)-N—((R)-2-fluoro-3-hydroxy-3-methylbutyl)-4-((3-fluorobutyl)amino)nicotinamide] are 6 nM and 810 nM.
On the same counts, the results for `CO[C@H]1CC[C@H](Nc2cc(-c3cnn4cc(Cl)cnc34)ncc2C(=O)NC[C@@H](F)C(C)(C)O)CC1` [Example 165, 6-(6-chloropyrazolo[1,5-a]pyrimidin-3-yl)-N—((R)-2-fluoro-3-hydroxy-3-methylbutyl)-4-(((1r,4R)-4-methoxycyclohexyl)amino)nicotinamide] are 6 nM and 470 nM.
For `CCO[C@H]1CC[C@H](NC(=O)c2cnc(-c3cnn4cc(Cl)cnc34)cc2NC(C)C)CC1` [Example 166, 6-(6-chloropyrazolo[1,5-a]pyrimidin-3-yl)-N-((1r,4r)-4-ethoxycyclohexyl)-4-(isopropylamino)nicotinamide], in that order: 5 nM and 660 nM.
For the molecule `CC(=O)N[C@H](C)CCNC(=O)c1cnc(-c2cnn3cc(Cl)cnc23)cc1NC(C)C` [Example 167, (R)—N-(3-acetamidobutyl)-6-(6-chloropyrazolo[1,5-a]pyrimidin-3-yl)-4-(isopropylamino) nicotinamide], at IRAK4, the concentration for half-maximal inhibition (IC50) came to 5 nM. The molecule further gave an EC50 in test [1] of 550 nM.
With `CC(C)Nc1cc(-c2cnn3cc(Cl)cnc23)ncc1C(=O)NCCCS(C)(=O)=O` [Example 168, 6-(6-chloropyrazolo[1,5-a]pyrimidin-3-yl)-4-(isopropylamino)-N-(3-(methylsulfonyl)propyl)nicotinamide], the IC50 at IRAK4 was determined as 16 nM. This molecule also displayed a 50% effective concentration (EC50) in test [1] of 760 nM.
On the same counts, the results for `CC(C)Nc1cc(-c2cnn3cc(C#N)cnc23)ncc1C(=O)NC[C@@H](F)C(C)(C)OC(F)F` [Example 170, (R)-6-(6-cyanopyrazolo[1,5-a]pyrimidin-3-yl)-N-(3-(difluoromethoxy)-2-fluoro-3-methylbutyl)-4-(isopropylamino)nicotinamide] are 5 nM and 820 nM.
Regarding `CC(C)Nc1cc(-c2cnc3cc(C#N)cnn23)ncc1C(=O)NCC(F)(F)C(C)(C)O` [Example 173, 6-(7-cyanoimidazo[1,2-b]pyridazin-3-yl)-N-(2,2-difluoro-3-hydroxy-3-methylbutyl)-4-(isopropylamino)nicotinamide], at IRAK4, the IC50 was found to be 6 nM. The same molecule displayed a 50% effective concentration (EC50) in test [1] of 830 nM.
For `COC(C)(C)[C@H]1CC[C@H](NC(=O)c2cnc(-c3cnc4cc(C#N)cnn34)cc2NC(C)C)CC1` [Example 174, 6-(7-cyanoimidazo[1,2-b]pyridazin-3-yl)-4-(isopropylamino)-N-((1r,4r)-4-(2-methoxypropan-2-yl)cyclohexyl)nicotinamide], in that order: 4 nM and 710 nM.
As to `CC(C)(O)[C@H](F)CNC(=O)c1cnc(-c2cnc3cc(Cl)cnn23)cc1N[C@H]1CC[C@H](C(C)(C)F)CC1` [Example 175, 6-(7-chloroimidazo[1,2-b]pyridazin-3-yl)-N—((R)-2-fluoro-3-hydroxy-3-methylbutyl)-4-(((1r,4R)-4-(2-fluoropropan-2-yl)cyclohexyl)amino)nicotinamide], the IC50 at IRAK4 amounted to 3 nM. In addition, in test [1], the midpoint of the response, the EC50, lay at 480 nM.
For the molecule `CC(C)(O)[C@H](F)CNC(=O)c1cnc(-c2cnc3cc(C#N)cnn23)cc1NC1CC1` [Example 182, (R)-6-(7-cyanoimidazo[1,2-b]pyridazin-3-yl)-4-(cyclopropylamino)-N-(2-fluoro-3-hydroxy-3-methylbutyl)nicotinamide], the IC50 on IRAK4 was found to be 2 nM. The midpoint of the response in test [1], the EC50, lay at 620 nM.
On the same counts, the results for `CC(C)Nc1cc(-c2ccc3cc(C#N)cnn23)ncc1C(=O)NC[C@@H](F)C(C)(C)O` [Example 193, (R)-6-(3-cyanopyrrolo[1,2-b]pyridazin-7-yl)-N-(2-fluoro-3-hydroxy-3-methylbutyl)-4-(isopropylamino)nicotinamide] are 4 nM and 260 nM.
With `CO[C@H]1CC[C@H](Nc2cc(-c3cnc4cc(C#N)cnn34)ncc2C(=O)NC[C@@H](F)C(C)(C)O)CC1` [Example 196, 6-(7-cyanoimidazo[1,2-b]pyridazin-3-yl)-N—((R)-2-fluoro-3-hydroxy-3-methylbutyl)-4-(((1r,4R)-4-methoxycyclohexyl)amino) nicotinamide], the IC50 on IRAK4 stood at 6 nM. The half-maximal effective concentration (EC50) in test [1] was 640 nM.
As to `C[C@@H](CF)Nc1cc(-c2cnc3cc(C#N)cnn23)ncc1C(=O)NC[C@@H](F)C(C)(C)O` [Example 200, 6-(7-cyanoimidazo[1,2-b]pyridazin-3-yl)-N—((R)-2-fluoro-3-hydroxy-3-methylbutyl)-4-(((S)-1-fluoropropan-2-yl)amino)nicotinamide], the concentration for half-maximal inhibition (IC50) on IRAK4 amounted to 2 nM. This molecule also yielded an EC50 in test [1] of 430 nM.
Consider `CC[C@@H](C)Nc1cc(-c2cnc3cc(Cl)cnn23)ncc1C(=O)NC[C@@H](F)C(C)(C)O` [Example 202, 4-(((R)-sec-butyl)amino)-6-(7-chloroimidazo[1,2-b]pyridazin-3-yl)-N—((R)-2-fluoro-3-hydroxy-3-methylbutyl)nicotinamide], for which, on IRAK4, the concentration for half-maximal inhibition (IC50) stood at 2 nM. In test [1], this molecule had an EC50 of 750 nM.
Take `CC(C)Nc1cc(-c2cnc3cc(C#N)cnn23)ncc1C(=O)NCC(F)C1CC(C)OC(C)C1` (centres unmarked) [Example 203, 6-(7-cyanoimidazo[1,2-b]pyridazin-3-yl)-N-(2-(2,6-dimethyltetrahydro-2H-pyran-4-yl)-2-fluoroethyl)-4-(isopropylamino)nicotinamide]: the IC50 at IRAK4 amounted to 5 nM. The molecule further returned an EC50 in test [1] of 890 nM.
For `CC(C)(O)[C@H](F)CNC(=O)c1cnc(-c2cnc3cc(C#N)cnn23)cc1N[C@H]1CC[C@H](C(C)(C)O)CC1` [Example 204, 6-(7-cyanoimidazo[1,2-b]pyridazin-3-yl)-N—((R)-2-fluoro-3-hydroxy-3-methylbutyl)-4-(((1r,4R)-4-(2-hydroxypropan-2-yl)cyclohexyl)amino)nicotinamide], in that order: 2 nM and 260 nM.
Turning to `CC(C)(O)[C@H](F)CNC(=O)c1cnc(-c2cnc3cc(Cl)cnn23)cc1NC1CC(F)(F)C1` [Example 206, (R)-6-(7-chioroimidazo[1,2-b]pyridazin-3-yl)-4-((3,3-difluorocyclobutyl)amino)-N-(2-fluoro-3-hydroxy-3-methylbutyl)nicotinamide], the IC50 on IRAK4 is 4 nM. In test [1], this molecule returned a half-maximal effective concentration (EC50) of 820 nM.
With `CC(C)(O)[C@H](F)CNC(=O)c1cnc(-c2cnc3cc(C#N)cnn23)cc1NC1CCC(F)C1` (stereo partly drawn) [Example 208, 6-(7-cyanoimidazo[1,2-b]pyridazin-3-yl)-N—((R)-2-fluoro-3-hydroxy-3-methylbutyl)-4-((3-fluorocyclopentyl)amino)nicotinamide], the half-inhibitory concentration (IC50) at IRAK4 was 6 nM. The molecule also came in with an EC50 in test [1] of 550 nM.
On the same counts, the results for `CC(C)Nc1cc(-c2cnc3cc(C(F)F)cnn23)ncc1C(=O)NC[C@H](F)C(C)(C)O` [Example 209, (S)-6-(7-(difluoromethyl)imidazo[1,2-b]pyridazin-3-yl)-N-(2-fluoro-3-hydroxy-3-methylbutyl)-4-(isopropylamino)nicotinamide] are 4 nM and 610 nM.
On the same counts, the results for `CC(C)(O)[C@H](F)CNC(=O)c1cnc(-c2cnc3cc(Cl)cnn23)cc1NCCC(F)F` [Example 210, (R)-6-(7-chloroimidazo[1,2-b]pyridazin-3-yl)-4-((3,3-difluoropropyl)amino)-N-(2-fluoro-3-hydroxy-3-methylbutyl)nicotinamide] are 3 nM and 980 nM.
On the same counts, the results for `CC(C)(O)[C@H](F)CNC(=O)c1cnc(-c2cnc3cc(C#N)cnn23)cc1NCCC(F)F` [Example 211, (R)-6-(7-cyanoimidazo[1,2-b]pyridazin-3-yl)-4-((3,3-difluoropropyl)amino)-N-(2-fluoro-3-hydroxy-3-methylbutyl)nicotinamide] are 2 nM and 940 nM.
`CC(C)Nc1cc(-c2cnc3cc(F)cnn23)ncc1C(=O)NC[C@H](F)C(C)(C)O` [Example 212, (S)—N-(2-fluoro-3-hydroxy-3-methylbutyl)-6-(7-fluoroimidazo[1,2-b]pyridazin-3-yl)-4-(isopropylamino)nicotinamide]: the IC50 on IRAK4 is 3 nM. Further, the response in test [1] was half-maximal at 980 nM (EC50).
Consider `CC(C)Nc1cc(-c2cnc3cc(C#N)cnn23)ncc1C(=O)NCCc1cccs1` [Example 213, 6-(7-cyanoimidazo[1,2-b]pyridazin-3-yl)-4-(isopropylamino)-N-(2-(thiophen-2-yl)ethyl)nicotinamide], for which, at IRAK4, the IC50 is 2 nM. This molecule had a concentration for a half-maximal effect (EC50) in test [1] of 890 nM.

By IC50 is commonly meant the point on the concentration scale where inhibition reaches its midpoint. The term EC50 denotes the midpoint of the concentration-response curve. A high value points to weaker potency.
